One assay concerns the target T1, human FAAH (Homo sapiens, UniProt O00519).
T1 construct: expressed in transfected cells
T1 sequence (O00519 1-579): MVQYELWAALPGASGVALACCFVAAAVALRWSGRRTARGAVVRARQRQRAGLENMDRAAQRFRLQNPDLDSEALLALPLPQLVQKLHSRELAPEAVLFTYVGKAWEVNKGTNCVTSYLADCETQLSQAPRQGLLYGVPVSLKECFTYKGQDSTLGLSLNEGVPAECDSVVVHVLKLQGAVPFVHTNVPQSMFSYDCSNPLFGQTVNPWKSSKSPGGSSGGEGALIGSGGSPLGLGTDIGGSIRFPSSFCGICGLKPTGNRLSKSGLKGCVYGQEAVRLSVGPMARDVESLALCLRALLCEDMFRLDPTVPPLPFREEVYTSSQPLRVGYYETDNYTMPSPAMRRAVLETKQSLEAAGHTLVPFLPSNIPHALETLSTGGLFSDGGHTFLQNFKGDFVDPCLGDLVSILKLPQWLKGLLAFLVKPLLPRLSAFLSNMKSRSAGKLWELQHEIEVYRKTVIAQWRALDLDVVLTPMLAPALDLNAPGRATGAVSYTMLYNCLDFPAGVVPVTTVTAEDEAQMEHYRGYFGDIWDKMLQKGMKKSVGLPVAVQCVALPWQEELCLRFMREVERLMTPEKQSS
Briefly: Assay Method 1: FAAH assay, hydrolysis of 3H-anandamide by homogenate of SK-N-MC cells transfected with human FAAH. The format is biochemical. How it is done:
A. Transfection of Cells with Human FAAH
(§1) A 10-cm tissue culture dish with a confluent monolayer of SK-N-MC cells was split 2 days (d) prior to transfection. Using sterile technique, the media was removed and the cells were detached from the dish by the addition of trypsin. One fifth of the cells were then placed onto a new 10-cm dish. Cells were grown in a 37° C. incubator with 5% CO2 in Minimal Essential Media Eagle with 10% Fetal Bovine Serum. After 2 d, cells were approximately 80% confluent. These cells were removed from the dish with trypsin and pelleted in a clinical centrifuge. The pellet was re-suspended in 400 μL complete media and transferred to an electroporation cuvette with a 0.4 cm gap between the electrodes. Supercoiled human FAAH cDNA (1 μg) was added to the cells and mixed. The voltage for the electroporation was set at 0.25 kV, and the capacitance was set at 960 μF. After electroporation, the cells were diluted into complete media (10 mL) and plated onto four 10-cm dishes. Because of the variability in the efficiency of electroporation, four different concentrations of cells were plated. The ratios used were 1:20, 1:10, and 1:5, with the remainder of the cells being added to the fourth dish. The cells were allowed to recover for 24 h before adding the selection media (complete media with 600 μg/mL G418). After 10 d, dishes were analyzed for surviving colonies of cells. Dishes with well-isolated colonies were used. Cells from individual colonies were isolated and tested.
The assay mixture consisted of […] of the cell homogenate, 10 μL of the test compound, and 40 μL of anandamide [1-^3H-ethanolamine] (3H-AEA, Perkin-Elmer, 10.3 Ci/mmol), which was added last, for a final tracer concentration of 80 nM. The reaction mixture was incubated at rt for 1 h. During the incubation, 96-well Multiscreen filter plates (catalog number MAFCNOB50; Millipore, Bedford, Mass., USA) were loaded with 25 μL of activated charcoal (Multiscreen column loader, catalog number MACL09625, Millipore) and washed once with 100 μL of MeOH. Also during the incubation, 96-well DYNEX MicroLite plates (catalog number NL510410) were loaded with 100 μL of MicroScint40 (catalog number 6013641, Packard Bioscience, Meriden, Conn., USA). After the 1 h incubation, 60 μL of the reaction mixture were transferred to the charcoal plates, which were then assembled on top of the DYNEX plates using Centrifuge Alignment Frames (catalog number MACF09604, Millipore). The unbound labeled ethanolamine was centrifuged through to the bottom plate (5 min at 2000 rpm), which was preloaded with the scintillant, as described above. The plates were sealed and left at rt for 1 h before counting on a Hewlett Packard TopCount.

The next assay has as its target T2, rat FAAH (Rattus norvegicus, UniProt P97612).
T2 construct: expressed in transfected cells
T2 sequence (P97612 1-579): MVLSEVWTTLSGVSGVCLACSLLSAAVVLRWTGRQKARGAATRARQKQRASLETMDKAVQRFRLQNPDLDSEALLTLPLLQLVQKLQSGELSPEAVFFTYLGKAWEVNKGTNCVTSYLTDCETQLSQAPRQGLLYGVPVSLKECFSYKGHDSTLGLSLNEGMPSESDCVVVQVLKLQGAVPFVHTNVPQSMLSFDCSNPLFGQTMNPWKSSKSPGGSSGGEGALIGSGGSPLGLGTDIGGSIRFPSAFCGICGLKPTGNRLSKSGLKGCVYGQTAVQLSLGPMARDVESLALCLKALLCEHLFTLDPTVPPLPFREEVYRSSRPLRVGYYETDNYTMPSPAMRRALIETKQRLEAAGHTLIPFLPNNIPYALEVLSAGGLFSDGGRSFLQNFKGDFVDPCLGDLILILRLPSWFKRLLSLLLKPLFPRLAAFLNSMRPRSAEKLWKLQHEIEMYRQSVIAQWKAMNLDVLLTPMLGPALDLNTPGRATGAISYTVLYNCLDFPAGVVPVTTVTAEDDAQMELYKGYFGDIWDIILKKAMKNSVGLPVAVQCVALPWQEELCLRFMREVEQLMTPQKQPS
Put plainly: Assay Method 2: FAAH assay, hydrolysis of 3H-anandamide by homogenate of SK-N-MC cells transfected with rat FAAH. It is filed as biochemical. Particulars: T84 or transfected SK-N-MC cell homogenate, 3H-AEA tracer 80 nM, rt 1 h, pH 9. How it is done: as §1, with “A. Transfection of Cells with Rat FAAH A 10-cm” for “A 10-cm”, “electrodes. Supercoiled rat FAAH cDNA” for “electrodes. Supercoiled human FAAH cDNA”, “and tested. […] B. FAAH Assay […] The reaction mixture was incubated at rt for 1 h. During the incubation, 96-well Multiscreen filter plates (catalog number MAFCNOB50; Millipore, Bedford, Mass., USA) were loaded with 25 μL of activated charcoal (Multiscreen column loader, catalog number MACL09625, Millipore) and washed once with 100 μL of MeOH. Also during the incubation, 96-well DYNEX MicroLite plates (catalog number NL510410) were loaded with 100 μL of MicroScint40 (catalog number 6013641, Packard Bioscience, Meriden, Conn., USA). After the 1 h incubation, 60 μL of the reaction mixture were transferred to the charcoal plates, which were then assembled on top of the DYNEX plates using Centrifuge Alignment Frames (catalog number MACF09604, Millipore). The unbound labeled ethanolamine was centrifuged through to the bottom plate (5 min at 2000 rpm), which was preloaded with the scintillant, as described above. The plates were sealed and left at rt for 1 h before counting on a Hewlett Packard TopCount.” for “and tested.”

Where [1] appears, read: human FAAH, T84 or transfected SK-N-MC cell homogenate, 3H-AEA tracer 80 nM, rt 1 h, pH 9, read-out: Assay 1 IC50.

Where a name gives a salt, the structure may show the parent alone. Read-outs that look alike come from different tables or passages of the source.

One may read the IC50 as the point on the concentration scale where inhibition reaches its midpoint.

For the molecule `CC(C)c1ccc(CN2CCC(CCCC(=O)c3ncc(C(=O)O)o3)CC2)cc1` [Example 144, 2-{4-[1-(4-Isopropyl-benzyl)-piperidin-4-yl]-butyryl}-oxazole-5-carboxylic acid trifluoroacetic acid salt], the IC50 is 75 nM on human FAAH (setting [1]) and 17 nM on rat FAAH.

As to `O=C(CCCC1CCN(C(=O)C2CCCCC2)CC1)c1ncco1` [Example 29, 4-(1-Cyclohexanecarbonyl-piperidin-4-yl)-1-oxazol-2-yl-butan-1-one], the values for the IC50 at human FAAH (setting [1]) and against rat FAAH were 45 nM and 180 nM, respectively.

Take `CCCOC(=O)N1CCC(CCCC(=O)c2ncco2)CC1` [Example 70, 4-(4-Oxazol-2-yl-4-oxo-butyl)-piperidine-1-carboxylic acid propyl ester]: the IC50 at human FAAH (setting [1]) came to 7 nM; on rat FAAH it was 19 nM.

Turning to `CC(C)CC(=O)N1CCC(CCCC(=O)c2ncco2)CC1` [Example 26, 3-Methyl-1-[4-(4-oxazol-2-yl-4-oxo-butyl)-piperidin-1-yl]-butan-1-one], the IC50 at human FAAH (setting [1]) was 400 nM; against rat FAAH it was 900 nM.

Turning to `O=C(CCCC1CCN(Cc2ccc(-n3ccnc3)cc2)CC1)c1ncco1` [Example 141, 4-[1-(4-Imidazol-1-yl-benzyl)-piperidin-4-yl]-1-oxazol-2-yl-butan-1-one], the IC50 turned out to be 84 nM at human FAAH (setting [1]) and 1500 nM against rat FAAH.

Regarding `O=C(CCCC1CCN(Cc2ccccc2Br)CC1)c1ncco1` [Example 85, 4-[1-(2-Bromo-benzyl)-piperidin-4-yl]-1-oxazol-2-yl-butan-1-one], the IC50 on human FAAH (setting [1]) is 315 nM; on rat FAAH, 240 nM.

For the molecule `CC(C)(C)Oc1ccc(CN2CCC(CCCC(=O)c3ncco3)CC2)cc1` [Example 24, 4-[1-(4-tert-Butoxy-benzyl)-piperidin-4-yl]-1-oxazol-2-yl-butan-1-one], the values for the IC50 on human FAAH (setting [1]) and at rat FAAH were 32 nM and 18 nM, respectively.

Turning to `CC(C)(C)OC(=O)N1CCC(CCCC(=O)c2ncco2)CC1` [Example 1, 4-(4-Oxazol-2-yl-4-oxo-butyl)-piperidine-1-carboxylic acid tert-butyl ester], the IC50 on human FAAH (setting [1]) came to 1.8 nM; against rat FAAH, 27 nM.

For the molecule `O=C(CCCC1CCN(Cc2ccc(N3CCOCC3)nc2)CC1)c1ncco1` [Example 107, 4-[1-(6-Morpholin-4-yl-pyridin-3-ylmethyl)-piperidin-4-yl]-1-oxazol-2-yl-butan-1-one], the results for the IC50 at human FAAH (setting [1]) and against rat FAAH were 180 nM and 2000 nM, respectively.

On to `O=C(CCCC1CCN(Cc2cnc3ccccc3c2)CC1)c1ncco1` [Example 21, 1-Oxazol-2-yl-4-(1-quinolin-3-ylmethyl-piperidin-4-yl)-butan-1-one], for which the IC50 on human FAAH (setting [1]) was determined as 29 nM; against rat FAAH, 86 nM.

As for `COc1cccc(CN2CCC(CCCC(=O)c3ncco3)CC2)c1` [Example 17, 4-[1-(3-Methoxy-benzyl)-piperidin-4-yl]-1-oxazol-2-yl-butan-1-one], the figures for the IC50 at human FAAH (setting [1]) and against rat FAAH were 36 nM and 308 nM, respectively.

For `CC(C)Oc1cccc(CN2CCC(CCCC(=O)c3ncco3)CC2)c1` [Example 135, 4-[1-(3-Isopropoxy-benzyl)-piperidin-4-yl]-1-oxazol-2-yl-butan-1-one], the half-maximal inhibitory concentration (IC50) amounted to 5 nM on human FAAH (setting [1]) and 9 nM against rat FAAH.

On to `O=C(O)c1cccc(-c2cnc(C(=O)CCCC3CCN(Cc4cccc(-c5ccccc5)c4)CC3)o2)n1` [Example 149, 6-{2-[4-(1-Biphenyl-3-ylmethyl-piperidin-4-yl)-butyryl]-oxazol-5-yl}-pyridine-2-carboxylic acid trifluoroacetic acid salt], for which the IC50 at human FAAH (setting [1]) worked out at 9 nM; at rat FAAH, 2 nM.

On to `O=C(CCCC1CCN(C(=O)CCc2ccc(Oc3ccccc3)cc2)CC1)c1ncco1` [Example 37, 1-Oxazol-2-yl-4-{1-[3-(4-phenoxy-phenyl)-propionyl]-piperidin-4-yl}-butan-1-one], for which the half-inhibitory concentration (IC50) at human FAAH (setting [1]) worked out at 22 nM; against rat FAAH it was 18 nM.

For `O=C(CCCC1CCN(C(=O)CC2CCCCC2)CC1)c1ncco1` [Example 49, 4-[1-(2-Cyclohexyl-acetyl)-piperidin-4-yl]-1-oxazol-2-yl-butan-1-one], the IC50 on human FAAH (setting [1]) is 100 nM; at rat FAAH, 350 nM.

For `CC(C)S(=O)(=O)N1CCC(CCCC(=O)c2ncco2)CC1` [Example 56, 1-Oxazol-2-yl-4-[1-(propane-2-sulfonyl)-piperidin-4-yl]-butan-1-one], the 50% inhibitory concentration (IC50) stood at 142 nM against human FAAH and 3350 nM against rat FAAH.

Take `O=C(O)c1cccc(-c2cnc(C(=O)CCCC3CCN(Cc4cccc(OC5CCCCC5)c4)CC3)o2)n1` [Example 150, 6-(2-{4-[1-(3-Cyclohexyloxy-benzyl)-piperidin-4-yl]-butyryl}-oxazol-5-yl)-pyridine-2-carboxylic acid trifluoroacetic acid salt]: the figures for the IC50 at human FAAH (setting [1]) and at rat FAAH were 16 nM and 7 nM, respectively.

(Values after patent US20090111778A1, “2-Keto-Oxazoles as Modulators of Fatty Acid Amide Hydrolase” (priority 2005, published 2009).)
